This is an account of results in ChEMBL document CHEMBL1201862, “PubChem BioAssay data set” (2004).

Common to all, as to assay: inhibition of tumour cell growth, NCI panel, 48 h
Test [1] has as its system SK-MEL-5.
For test [2], the system named is HCT-116.
For test [3], the system named is HL-60.
Test [4] deals with SK-MEL-2.
Test [5] has as its system K562.
In test [6] the test system is ACHN.
Test [7] relates to KM12.
For test [8], the system named is M14.
The subject of test [9] is LOX IMVI.
In test [10] the test system is NCI-H522.
Test [11] relates to NCI-H23.
Test [12] relates to HCT-15.
Test [13] relates to Malme-3M.
Test [14] relates to OVCAR-4.
In test [15] the test system is A498.
In test [16] the test system is OVCAR-8.

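Compound exposure: 48 hours, 5 concentrations, 96-well plates. GI50 = concentration required for 50% inhibition of growth.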 Activity calls are given as the source filed them. Rule as the data show it: active = GI50 up to about 1.1 µM and inactive = higher.

On to `CCN(CC)c1ccc(C(=C2C=CC(=[N+](CC)CC)C=C2)c2ccccc2)cc1`, for which the GI50 is 0.0166 µM (active) in test [1]; 0.0324 µM (active) in test [2]; < 0.01 µM (active) in test [3]; 0.0279 µM (active) in test [4]; 0.0213 µM (active) in test [5]; 0.0313 µM (active) in [6]. Also, the GI50 in test [7] was 0.0324 µM (active); in test [8] it was 0.0163 µM (active); in [9], 0.0219 µM (active); in test [10], 0.0177 µM (active); in [11] it was 0.0283 µM (active); in test [12], 0.0483 µM. The GI50 was 0.0304 µM (active) in test [13] and 0.0353 µM (active) in [14].

In the case of `CCCC/C=C/C=C/C=C/CCCCCCCC(=O)OCC(COC(=O)CCCCCCC/C=C/C1C=CC(CCCC)C(C(=O)O)C1C(=O)O)OC(=O)CCCCCCC/C=C/C=C/C=C/CCCC.OCCNCO` (configuration not stated), the GI50 in test [1] is 17.4 µM (inactive); in test [2] it was 17 µM (inactive); in test [3], 21.9 µM (inactive); in [4], 15.8 µM (inactive); in test [5] it was 19.5 µM (inactive); in test [6] it was 19 µM (inactive). Further, the GI50 in test [7] was 18.7 µM (inactive); in [8], 15.4 µM (inactive); in test [9], 13.2 µM (inactive); in test [15], 15.3 µM (inactive); in [11], 19.4 µM (inactive); in test [16] it was 19.6 µM (inactive). Moreover, the GI50 in [12] was 16.2 µM; in [13], 20.9 µM (inactive); in test [14], 17 µM (inactive).

In the case of `O=C(CC1=Nc2nnc(-c3nnc4n3C(=O)C(CC(=O)c3cccnc3)=N4)n2C1=O)c1cccnc1`, the GI50 in [1], in test [2], in [3], in test [4], in [5] and in test [6] was > 100 µM (inactive) throughout. Besides, the GI50 in [7], in [8], in [9], in test [10], in [15] and in [11] was > 100 µM (inactive) in each case. The GI50 in [12] is above 100 µM; in test [13], > 100 µM (inactive); in [14], > 100 µM (inactive).

Turning to `c1cc(-c2cn[nH]c2)cc(-c2cn[nH]c2)c1`, the GI50 was 32.6 µM (inactive) in test [1]; 20.2 µM (inactive) in [2]; 30.9 µM (inactive) in [3]; 56 µM (inactive) in [4]; 43 µM (inactive) in [5]; 41 µM (inactive) in [7]. In addition, the GI50 in [8] was 44.6 µM (inactive); in test [9] it was 36.8 µM (inactive); in [10], 27.2 µM (inactive); in test [15], 25.3 µM (inactive); in test [11], 47 µM (inactive); in [16], 36.9 µM (inactive). Also, the GI50 was 28.4 µM in test [12] and 54 µM (inactive) in [14].

Consider `O=[N+]([O-])c1cccc(C2=NN(c3ccccc3)C[N+](c3ccc(Br)cc3)=N2)c1`, for which the GI50 in test [1] was > 100 µM (inactive); in test [2], 97.1 µM (inactive); in test [4] it was 87.3 µM (inactive); in test [5], 50.2 µM (inactive); in test [6], 93.5 µM (inactive); in [7], 73.5 µM (inactive). The GI50 was 59 µM (inactive) in [8]; 77.1 µM (inactive) in [10]; > 100 µM (inactive) in test [15]; > 100 µM (inactive) in test [11]; > 100 µM (inactive) in test [16]; above 100 µM in test [12]. The GI50 in [13] and in test [14] was > 100 µM (inactive) each time.

With `CN(C)C(=N/O)/C(=N\O)N(C)C`, the GI50 in test [2], in [3], in test [4], in test [5], in test [6] and in test [7] was > 100 µM (inactive) in each case. In addition, the GI50 in [8], in test [9], in test [10], in test [15], in [11] and in test [16] was > 100 µM (inactive) throughout. For the same molecule, the GI50 is above 100 µM in test [12], > 100 µM (inactive) in test [13] and > 100 µM (inactive) in test [14].

Turning to `O=C(CCc1nnc(S)[nH]1)NC12CC3CC(CC(C3)C1)C2`, the GI50 in test [1], in test [2], in [3], in test [4], in test [5] and in test [6] was > 100 µM (inactive) each time. Besides, the GI50 in [7], in test [8], in test [9], in test [15], in [11] and in test [16] was > 100 µM (inactive) each time. Moreover, the GI50 in test [12] was above 100 µM; in test [13], > 100 µM (inactive); in test [14] it was > 100 µM (inactive).

Consider `O=CCCCC(Sc1ccccc1)Sc1ccccc1`, for which the GI50 is 15.8 µM (inactive) in [1]; 12.4 µM (inactive) in test [2]; 6.1 µM (inactive) in test [3]; 20.2 µM (inactive) in [4]; 14.4 µM (inactive) in test [5]; 16.3 µM (inactive) in [6]. Moreover, the GI50 is 33 µM (inactive) in [7]; 22.9 µM (inactive) in [8]; 13.7 µM (inactive) in test [9]; > 100 µM (inactive) in test [10]; 38.8 µM (inactive) in test [15]; 11.5 µM (inactive) in [11]. Further, the GI50 in test [16] is 17.4 µM (inactive); in test [12], 15.7 µM; in [14] it was 21.7 µM (inactive).

For the molecule `Cc1nn2c(nc1=O)sc1ccc3ccccc3c12`, the GI50 in [1], in test [2], in [3], in test [4], in test [5] and in [6] was > 100 µM (inactive) each time. Further, the GI50 was > 100 µM (inactive) in test [7]; > 100 µM (inactive) in [8]; > 100 µM (inactive) in test [9]; > 100 µM (inactive) in test [11]; > 100 µM (inactive) in [16]; above 100 µM in test [12]. The GI50 in test [13] and in [14] was > 100 µM (inactive) throughout.

In the case of `O=c1c2cc(Br)ccc2[nH]c(=S)n1-c1ccc(Br)cc1`, the GI50 was 89.7 µM (inactive) in test [2]; > 100 µM (inactive) in test [3]; 87.7 µM (inactive) in test [4]; > 100 µM (inactive) in test [5]; > 100 µM (inactive) in test [6]; > 100 µM (inactive) in [7]. Also, the GI50 is 70.6 µM (inactive) in [9]; > 100 µM (inactive) in [10]; > 100 µM (inactive) in test [15]; > 100 µM (inactive) in [11]; 31 µM (inactive) in [16]; above 100 µM in test [12]. The GI50 in test [13] was > 100 µM (inactive); in test [14], 76.4 µM (inactive).

In the case of `CCOC(=O)/C(C#N)=C1\N[C@H](C(=O)OCC)CO1`, the GI50 in [1] is > 100 µM (inactive); in test [2], > 100 µM (inactive); in [3], > 100 µM (inactive); in test [4], 30.4 µM (inactive); in test [5] it was > 100 µM (inactive); in test [6] it was > 100 µM (inactive). The GI50 in test [7], in test [8], in test [9], in test [10], in test [11] and in test [16] was > 100 µM (inactive) in each case. The GI50 is above 100 µM in test [12], > 100 µM (inactive) in test [13] and > 100 µM (inactive) in test [14].

As to `CCC(=O)Nc1nc2c(ncn2C2OC(COC(=O)CC)C(OC(=O)CC)C2OC(=O)CC)c(=O)[nH]1` (configuration not stated), the GI50 in [1] is > 100 µM (inactive); in test [2] it was > 100 µM (inactive); in test [3] it was 46.6 µM (inactive); in test [4] it was > 100 µM (inactive); in [5] it was > 100 µM (inactive); in [6], > 100 µM (inactive). For the same molecule, the GI50 in [7], in test [8], in [9], in test [10], in [15] and in test [16] was > 100 µM (inactive) each time. Further, the GI50 in [12] was above 100 µM; in test [13] it was > 100 µM (inactive); in [14], > 100 µM (inactive).

Turning to `CS(=O)(=O)N(CCC#N)c1ccc(/C=C2\N=C(c3ccccc3Cl)OC2=O)cc1`, the GI50 in [1], in [2], in [3], in [4], in [5] and in test [6] was > 100 µM (inactive) each time. For the same molecule, the GI50 in [7], in test [8], in test [9], in test [10], in test [15] and in [11] was > 100 µM (inactive) throughout. Besides, the values for the GI50 in test [16], in test [12] and in test [13] were > 100 µM (inactive), above 100 µM and > 100 µM (inactive), respectively.

With `COC(=O)C(=O)C(C#N)c1ccc(CC#N)cc1` (configuration not stated), the GI50 in test [2], in [3], in test [4], in test [5], in [6] and in test [7] was > 100 µM (inactive) each time. For the same molecule, the GI50 in test [8] was > 100 µM (inactive); in test [9], > 100 µM (inactive); in test [10], > 100 µM (inactive); in test [11], > 100 µM (inactive); in test [12] it was above 100 µM; in [13], > 100 µM (inactive).
